Reference: patent US7807701B2, “Dibenzylamine compounds and pharmaceutical use thereof” (Japan Tobacco Inc., priority 2002, dated 2010)

Key:
CETP [1] = assay: Inhibitory effect exo vivo on CETP activity in total plasma of normal hamster; settings: average values; for CETP activity (%) 4 (hr later): single oral dose 3 mg/kg, blood taken 4 hr after administration; for CETP activity (%) 2 (hr later): blood taken 2 hr after administration
Procedure: Potassium bromide (KBr) was added to plasma (40 mL) of healthy subject and the mixture was adjusted to have a specific density d=1.125 g/mL. The mixture was subjected to density gradient centrifugation (227,000×g, 4° C., 17 hr) and a fraction showing a specific density of d>1.125 g/mL (HDL3 fraction) was harvested. The obtained fraction was dialyzed against PBS solution [10 mmol/L Na2HPO4; 10 mmol/L NaH2PO4; 0.15 mol/L NaCl; […] (pH 7.4)]. Then, tritium-labeled cholesterol (37 MBq) was dissolved in 95% ethanol, gradually added to the above-mentioned HDL3 fraction with stirring and incubated at 37° C. for 18 hr. [By this operation, tritium-labeled cholesterol was esterified by the action of lecithin acyl transferase (LCAT) present on the HDL3 surface and taken up into HDL3 as tritium-labeled cholesteryl ester ([^3H]CE)]. After incubation, KBr was added, the mixture was adjusted to have a specific density d=1.21 g/mL, subjected to density gradient centrifugation (227,000×g, 4° C., 17 hr) and a fraction of specific density […] was harvested. The obtained fraction was dialyzed against the aforementioned PBS solution to give HDL3 incorporating [^3H]CE ([^3H]CE-HDL3, specific density: 1.125<d<1.21, specific activity: 10,000 dpm/μL), which was used as a donor lipoprotein.
(§1) The compound of the present invention was suspended in 0.5% methyl cellulose solution and orally administered once to a healthy hamster with a plastic gavage needle. Blood was taken at 2 or 4 hr after the administration and CETP activity in plasma was measured according to the following method.
The donor lipoprotein obtained above was added to hamster plasma (100 μL) to prepare [^3H]CE-HDL3-containing plasma (ca. 1,000 dpm/μL). The [^3H]CE-HDL3-containing plasma was dispensed to two microtubes by 25 μL each, and one was incubated at 37° C. and the other was incubated at 4° C. for 4 hr each. After ice-cooling, TBS solution (50 μl) containing 1 mol/L magnesium chloride and 2% dextran sulfate was added to each microtube and the mixture was thoroughly stirred. After keeping at […] for 30 min, the mixture was centrifuged (10,000×g, 4° C., 20 min), and the radioactivity in the obtained supernatant (HDL fraction) was measured with a liquid scintillation counter. The radioactivity of the [^3H]CE-HDL3-containing plasma was measured with a liquid scintillation counter, and taken as the total radioactivity. The transfer rate of [^3H]CE was calculated from the following formula using the total radioactivity (Total count), radioactivity by 37° C. incubation (37° C. count) and radioactivity by 4° C. incubation (4° C. count) of the sample of each individual and taken as the CETP activity. CETP activity(transfer ratio (%))={[(4° C. count)−(37° C. count)]/(Total count)}×100
The CETP activity inhibitory ratio of each compound administration group based on the CETP activity of the solvent administration group as 100% was calculated from the following formula and expressed in %.
CETP activity inhibitory ratio (%)=100−[(CETP activity of each compound administration group)/(CETP activity of solvent administration group)×100]

HDL cholesterol = assay: Blood HDL cholesterol increasing effect in normal hamster; format: in vivo; settings: single oral dose 3 mg/kg, versus solvent group, average values; for HDL cholesterol increase content (%) 4 (hr later): 4 hr after administration; for HDL cholesterol increase content (%) 8 (hr later): 8 hr after administration
Procedure: as §1
To the plasma (40 μL) obtained from the above-mentioned animal at 4 or 8 hr after the administration was added 15% polyethylene glycol solution (40 μL) and the mixture was thoroughly stirred. After keeping at room temperature for 10 min, the mixture was centrifuged (10,000×g, 4° C., 20 min) and the cholesterol content (HDL cholesterol content) of the obtained supernatant (HDL fraction) was measured. The increase ratio of the HDL cholesterol content of each compound administration group when the HDL cholesterol content of the solvent administration group as 100% was calculated from the following formula and expressed in %. HDL cholesterol increase ratio(%)=[(HDL cholesterol content of each compound administration group/HDL cholesterol content of solvent administration group)×100]−100

CETP [2] = biological target: T1, CETP (Homo sapiens, UniProt P11597); assay: Inhibitory effect in vitro on CETP activity in total plasma; format: biochemical; settings: plasma of healthy subject with [3H]CE-HDL3, 37° C., 4 hr; average values
T1 construct: The donor lipoprotein obtained above was added to plasma of healthy subject; from tissue; host or cells: whole plasma of healthy subject
T1 sequence (P11597 18-493): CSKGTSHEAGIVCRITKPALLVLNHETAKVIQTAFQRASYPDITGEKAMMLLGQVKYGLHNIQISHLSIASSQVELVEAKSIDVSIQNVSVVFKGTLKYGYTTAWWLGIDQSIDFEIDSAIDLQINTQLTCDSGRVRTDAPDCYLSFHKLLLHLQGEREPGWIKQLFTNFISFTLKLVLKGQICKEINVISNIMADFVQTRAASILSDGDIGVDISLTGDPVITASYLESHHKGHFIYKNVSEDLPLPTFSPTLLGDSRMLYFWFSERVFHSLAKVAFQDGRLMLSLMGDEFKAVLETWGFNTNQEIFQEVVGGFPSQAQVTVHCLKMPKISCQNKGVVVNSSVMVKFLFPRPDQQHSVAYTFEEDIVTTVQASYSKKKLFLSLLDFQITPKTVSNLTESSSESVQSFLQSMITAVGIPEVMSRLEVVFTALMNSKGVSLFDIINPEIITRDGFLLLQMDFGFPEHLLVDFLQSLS
How it was run: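 Healthy-donor plasma spiked with [3H]cholesteryl ester-labelled HDL3 (1,000 dpm/μL) was incubated with compound (DMF vehicle) for 4 hr at 37 °C or 4 °C. HDL was separated by MgCl2/dextran sulfate precipitation and supernatant radioactivity counted. IC50 is the concentration giving 50% inhibition of CETP activity.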

| Compound | IC50 (CETP [2]) [nM] | CETP activity (%) 4 (hr later) (CETP [1]) [%] | HDL cholesterol increase content (%) 4 (hr later) (HDL cholesterol) [%] | HDL cholesterol increase content (%) 8 (hr later) (HDL cholesterol) [%] | CETP activity (%) 2 (hr later) (CETP [1]; single oral dose 10 mg/kg) [%] | CETP activity (%) 2 (hr later) (CETP [1]; single oral dose 30 mg/kg) [%] |
| --- | --- | --- | --- | --- | --- | --- |
| CCCN(C[C@H]1CC[C@H](CC(=O)O)CC1)c1cc(C)c(C(F)(F)F)cc1CN(Cc1cc(C(F)(F)F)cc(C(F)(F)F)c1)c1nnn(C)n1.Cl [Example 157, trans-(4-{[N-(2-{[N′-[3,5-bis(trifluoromethyl)benzyl]-N′-(2-methyl-2H-tetrazol-5-yl)amino]methyl}-5-methyl-4-trifluoromethylphenyl)-N-propylamino]methyl}cyclohexyl)acetic acid hydrochloride] | – | 80.4 | 17.9 | 27.1 | – | – |
| CCCN(C[C@H]1CC[C@H](CC(=O)O)CC1)c1ccc(C(F)(F)F)cc1CN(Cc1cc(C(F)(F)F)cc(C(F)(F)F)c1)c1nnn(C)n1.Cl [Example 154, trans-(4-{[N-(2-{[N′-[3,5-bis(trifluoromethyl)benzyl]-N′-(2-methyl-2H-tetrazol-5-yl)amino]methyl}-4-trifluoromethylphenyl)-N-propylamino]methyl}cyclohexyl)acetic acid hydrochloride] | – | 64.2 | 13.3 | 22.4 | – | – |
| CCCN(C[C@H]1CC[C@H](CC(=O)O)CC1)c1ccc(OC(F)(F)F)cc1CN(Cc1cc(C(F)(F)F)cc(C(F)(F)F)c1)c1nnn(C)n1.Cl [Example 158, trans-(4-{[N-(2-{[N′-[3,5-bis(trifluoromethyl)benzyl]-N′-(2-methyl-2H-tetrazol-5-yl)amino]methyl}-4-trifluoromethoxyphenyl)-N-propylamino]methyl}cyclohexyl)acetic acid hydrochloride] | – | 55.6 | 14.8 | 23.7 | – | – |
| CCN(CCCCC(=O)OC)c1cc2c(cc1CN(Cc1cc(C(F)(F)F)cc(C(F)(F)F)c1)c1nnn(C)n1)CCC2.Cl [Example 35, methyl 5-[N-(6-{[N′-[3,5-bis(trifluoromethyl)benzyl]-N′-(2-methyl-2H-tetrazol-5-yl)amino]methyl}indan-5-yl)-N-ethylamino]pentanoate hydrochloride] | 350 | – | – | – | – | 37.8 |

Second part, led by results:

| IC50 (CETP [2]) [nM] | Compound | CETP activity (%) 4 (hr later) (CETP [1]) [%] | HDL cholesterol increase content (%) 4 (hr later) (HDL cholesterol) [%] | HDL cholesterol increase content (%) 8 (hr later) (HDL cholesterol) [%] | CETP activity (%) 2 (hr later) (CETP [1]; single oral dose 10 mg/kg) [%] | CETP activity (%) 2 (hr later) (CETP [1]; single oral dose 30 mg/kg) [%] |
| --- | --- | --- | --- | --- | --- | --- |
| 100 | CCN(C[C@H]1CC[C@H](CC(=O)O)CC1)c1cc(C(F)(F)F)c(C)cc1CN(Cc1cc(C(F)(F)F)cc(C(F)(F)F)c1)c1nnn(C)n1.Cl [Example 143, trans-(4-{[N-(2-{[N′-[3,5-bis(trifluoromethyl)benzyl]-N′-(2-methyl-2H-tetrazol-5-yl)amino]methyl}-4-methyl-5-trifluoromethylphenyl)-N-ethylamino]methyl}cyclohexyl)acetic acid hydrochloride] | 42.2 | 17.0 | 21.3 | – | – |
| 90 | CCN(C[C@H]1CC[C@H](CC(=O)O)CC1)c1ccc(C(F)(F)F)cc1CN(Cc1cc(C(F)(F)F)cc(C(F)(F)F)c1)c1nnn(C)n1.Cl [Example 118, trans-(4-{[N-(2-{[N′-[3,5-bis(trifluoromethyl)benzyl]-N′-(2-methyl-2H-tetrazol-5-yl)amino]methyl}-4-trifluoromethylphenyl)-N-ethylamino]methyl}cyclohexyl)acetic acid hydrochloride] | 55.4 | 21.1 | 31.7 | – | – |
| 310 | CCN(C[C@H]1CC[C@H](C(=O)O)CC1)c1ccc(C(F)(F)F)cc1CN(Cc1cc(C(F)(F)F)cc(C(F)(F)F)c1)c1nnn(C)n1.Cl [Example 96, trans-4-{[N-(2-{[N′-[3,5-bis(trifluoromethyl)benzyl]-N′-(2-methyl-2H-tetrazol-5-yl)amino]methyl}-4-trifluoromethylphenyl)-N-ethylamino]methyl}cyclohexanecarboxylic acid hydrochloride] | – | – | – | 41.1 | – |
| 90 | CCN(C[C@H]1CC[C@H](CC(=O)O)CC1)c1ccc(OC(F)(F)F)cc1CN(Cc1cc(C(F)(F)F)cc(C(F)(F)F)c1)c1nnn(C)n1.Cl [Example 115, trans-(4-{[N-(2-{[N′-[3,5-bis(trifluoromethyl)benzyl]-N′-(2-methyl-2H-tetrazol-5-yl)amino]methyl}-4-trifluoromethoxyphenyl)-N-ethylamino]methyl}cyclohexyl)acetic acid hydrochloride] | 62.1 | 23.3 | 30.7 | – | – |
| 60 | CCN(C[C@H]1CC[C@H](CC(=O)O)CC1)c1cc(C)c(C(F)(F)F)cc1CN(Cc1cc(C(F)(F)F)cc(C(F)(F)F)c1)c1nnn(C)n1.Cl [Example 142, trans-(4-{[N-(2-{[N′-[3,5-bis(trifluoromethyl)benzyl]-N′-(2-methyl-2H-tetrazol-5-yl)amino]methyl}-5-methyl-4-trifluoromethylphenyl)-N-ethylamino]methyl}cyclohexyl)acetic acid hydrochloride] | 71.6 | 20.3 | 31.9 | – | – |
| 560 | CCN(CCCCCC(=O)O)c1cc2c(cc1CN(Cc1cc(C(F)(F)F)cc(C(F)(F)F)c1)c1nnn(C)n1)CCC2.Cl [Example 91, 6-[N-(6-{[N′-[3,5-bis(trifluoromethyl)benzyl]-N′-(2-methyl-2H-tetrazol-5-yl)amino]methyl}indan-5-yl)-N-ethylamino]hexanoic acid hydrochloride] | – | – | – | 44.7 | – |
